Measured values from ChEMBL document CHEMBL5230129, “Antibacterial activities with the structure-activity relationship of coumarin derivatives” (2020).
Converted amounts (≈) assume the structure as drawn.

Assays:
Type in all cases: functional
[1] = test system: Escherichia coli; test: Antibacterial activity against Escherichia coli MTCC 40 assessed as inhibition of bacterial growth incubated for 24 hrs by well-plate method
[2] = test system: Staphylococcus aureus; test: Antibacterial activity against Staphylococcus aureus MTCC 121 assessed as inhibition of bacterial growth incubated for 24 hrs by well-plate method
[3] = test system: Escherichia coli; test: Antibacterial activity against Escherichia coli MTCC 40 assessed as zone of inhibition incubated for 24 hrs by well-plate method
[4] = test system: Staphylococcus aureus; test: Antibacterial activity against Staphylococcus aureus MTCC 121 assessed as zone of inhibition incubated for 24 hrs by well-plate method
[5] = test system: Escherichia coli; test: Antibacterial activity against Escherichia coli MTCC 739 assessed as inhibition of bacterial growth incubated for 24 hrs by spectrophotometric assay
[6] = test system: Staphylococcus aureus; test: Antibacterial activity against Staphylococcus aureus MTCC 3160 assessed as inhibition of bacterial growth by broth micro dilution assay
[7] = test system: Staphylococcus aureus; test: Antibacterial activity against Staphylococcus aureus NCTC-7447 assessed as zone of inhibition incubated for 24 hrs by paper disk diffusion assay
[8] = test system: Escherichia coli; test: Antibacterial activity against Escherichia coli MTCC 1586 assessed as zone of inhibition incubated overnight by Kirby-Bauer disc diffusion method
[9] = test system: Staphylococcus aureus; test: Antibacterial activity against Staphylococcus aureus MTCC 740 assessed as zone of inhibition incubated overnight by Kirby-Bauer disc diffusion method
[10] = test system: Bacillus cereus; test: Antibacterial activity against Bacillus cereus MTCC 430 assessed as zone of inhibition incubated overnight by Kirby-Bauer disc diffusion method
[11] = test system: Staphylococcus aureus; test: Antibacterial activity against Staphylococcus aureus assessed as zone of inhibition incubated for 24 hrs by agar diffusion assay
[12] = test system: Proteus vulgaris; test: Antibacterial activity against Proteus vulgaris assessed as zone of inhibition incubated for 24 hrs by agar diffusion assay
[13] = test system: Bacillus subtilis; test: Antibacterial activity against Bacillus subtilis assessed as zone of inhibition incubated for 24 hrs by agar diffusion assay
[14] = test system: Escherichia coli; test: Antibacterial activity against Escherichia coli assessed as zone of inhibition incubated for 24 hrs by well-diffusion method
[15] = test system: Pseudomonas aeruginosa; test: Antibacterial activity against Pseudomonas aeruginosa assessed as zone of inhibition incubated for 24 hrs by well-diffusion method
[16] = test system: Staphylococcus aureus; test: Antibacterial activity against Staphylococcus aureus assessed as zone of inhibition incubated for 24 hrs by well-diffusion method
[17] = test system: Micrococcus luteus; test: Antibacterial activity against Micrococcus luteus assessed as zone of inhibition incubated for 24 hrs by well-diffusion method
[18] = test system: Pseudomonas aeruginosa; test: Antibacterial activity against Pseudomonas aeruginosa assessed as inhibition of bacterial growth incubated for 24 hrs by broth microdilution assay
[19] = test system: Escherichia coli; test: Antibacterial activity against Escherichia coli ATCC 25922 assessed as zone of inhibition incubated for 24 hrs by paper disk method
[20] = test system: Pseudomonas aeruginosa; test: Antibacterial activity against Pseudomonas aeruginosa ATCC 27853 assessed as zone of inhibition incubated for 24 hrs by paper disk method
[21] = test system: Staphylococcus aureus; test: Antibacterial activity against Staphylococcus aureus ATCC 25923 assessed as zone of inhibition incubated for 24 hrs by paper disk method
[22] = test system: Bacillus subtilis; test: Antibacterial activity against Bacillus subtilis ATCC 10876 assessed as zone of inhibition incubated for 24 hrs by paper disk method
[23] = test system: Pseudomonas aeruginosa; test: Antibacterial activity against Pseudomonas aeruginosa assessed as zone of inhibition incubated for 24 to 48 hrs by agar well diffusion assay; details: time 24-48 hrs
[24] = test system: Staphylococcus aureus; test: Antibacterial activity against Staphylococcus aureus assessed as zone of inhibition incubated for 24 to 48 hrs by agar well diffusion assay; details: time 24-48 hrs
[25] = test system: Micrococcus luteus; test: Antibacterial activity against Micrococcus luteus ATCC 9341 assessed as inhibition of bacterial growth incubated for 20 hrs by broth doubling dilution assay
[26] = test system: Staphylococcus epidermidis; test: Antibacterial activity against Staphylococcus epidermidis ATCC 12228 assessed as inhibition of bacterial growth incubated for 20 hrs by broth doubling dilution assay
[27] = test system: Bacillus cereus; test: Antibacterial activity against Bacillus cereus ATCC 10702 assessed as inhibition of bacterial growth incubated for 20 hrs by broth doubling dilution assay
[28] = test system: Helicobacter pylori; test: Antibacterial activity against Helicobacter pylori ATCC43504 assessed as inhibition of bacterial growth incubated for 72 hrs by micro-dilution broth assay
[29] = test system: Bacillus cereus; test: Antibacterial activity against Bacillus cereus ATCC-14579 assessed as zone of inhibition incubated for 24 hrs by paper disk diffusion assay
[30] = test system: Pseudomonas aeruginosa; test: Antibacterial activity against Pseudomonas aeruginosa MTCC 1034 assessed as inhibition of bacterial growth by broth micro dilution assay
[31] = test system: Escherichia coli; test: Antibacterial activity against Escherichia coli assessed as inhibition of bacterial growth
[32] = test system: Staphylococcus aureus; test: Antibacterial activity against Staphylococcus aureus ATCC-29213 assessed as inhibition of bacterial growth incubated for 16 hrs by agar-well diffusion assay
[33] = test system: Escherichia coli; test: Antibacterial activity against Escherichia coli MTCC 443 assessed as inhibition of bacterial growth incubated for 18 to 20 hrs by broth microdilution assay; details: time 18-20 hrs
[34] = test system: Staphylococcus aureus; test: Antibacterial activity against Staphylococcus aureus MTCC 96 assessed as inhibition of bacterial growth incubated for 18 to 20 hrs by broth microdilution assay; details: time 18-20 hrs
[35] = test system: Staphylococcus aureus; test: Antibacterial activity against Staphylococcus aureus assessed as inhibition of bacterial growth by broth dilution assay
[36] = test system: Bacillus subtilis; test: Antibacterial activity against Bacillus subtilis assessed as inhibition of bacterial growth by broth dilution assay
[37] = test system: Bacillus subtilis; test: Antibacterial activity against Bacillus subtilis assessed as inhibition of bacterial growth relative to control
[38] = test system: Escherichia coli; test: Antibacterial activity against Escherichia coli assessed as inhibition of bacterial growth relative to control
[39] = test system: Pseudomonas; test: Antibacterial activity against Pseudomonas assessed as zone of inhibition
[40] = test system: Staphylococcus aureus; test: Antibacterial activity against Staphylococcus aureus assessed as inhibition of bacterial growth by broth micro dilution assay
[41] = test system: Bacillus; test: Antibacterial activity against Bacillus assessed as inhibition of bacterial growth by broth micro dilution assay
[42] = test system: Escherichia coli; test: Antibacterial activity against Escherichia coli NCIM 2256 assessed as inhibition of bacterial growth incubated for 24 hrs by serial twofold dilution assay
[43] = test system: Pseudomonas fluorescens; test: Antibacterial activity against Pseudomonas fluorescens NCIM 2173 assessed as inhibition of bacterial growth incubated for 24 hrs by serial twofold dilution assay
[44] = test system: Sphingomonas paucimobilis; test: Antibacterial activity against Flavobacterium devorans ATCC 10829 assessed as inhibition of bacterial growth incubated for 24 hrs by serial twofold dilution assay

## CN[C@@H]1[C@H](O[C@H]2[C@H](O[C@H]3[C@H](O)[C@@H](O)[C@H](N=C(N)N)[C@@H](O)[C@@H]3N=C(N)N)O[C@@H](C)[C@]2(O)C=O)O[C@@H](CO)[C@H](O)[C@H]1O [STREPTOMYCIN]
[1]
  MIC: 12.5 µg/mL (≈ 21.5 µM)
[2]
  MIC: 12.5 µg/mL (≈ 21.5 µM)
[3]
  inhibition zone (IZ): 22 mm
[4]
  inhibition zone (IZ): 20 mm

## O=c1cc(OCc2cn(CN3CCN(c4ccccc4F)CC3)c(=S)s2)c2ccccc2o1
[5]
  MIC: 12.5 µg/mL (≈ 25.8 µM)

## O=c1oc2cc(Br)ccc2cc1-c1csc(N/N=C/c2cn(-c3ccccc3)nc2-c2cc3ccccc3oc2=O)n1
[1]
  MIC: 12.5 µg/mL (≈ 19.6 µM)
[2]
  MIC: 50 µg/mL (≈ 78.6 µM)
[3]
  inhibition zone (IZ): 22 mm
[4]
  inhibition zone (IZ): 22 mm

## Cc1cc(=O)oc2c1=CCC(Cl)C=2C1C(C#N)=C(N)Oc2c1c(=O)oc1ccccc21 (centres undefined)
[6]
  MIC: 0.8 µg/mL (≈ 1.84 µM)

## O=c1oc2ccccc2c(O)c1-c1cc[nH]n1
[7]
  inhibition zone (IZ): 10 mm

## CC[N+](CC)(CC)CCCCCCCCCCCCNCc1cn(Cc2cc(=O)oc3cc4c(cc23)CCC(C)(C)O4)nn1.[Br-]
[8]
  inhibition zone (IZ): 8 mm
[9]
  inhibition zone (IZ): 6 mm
[10]
  inhibition zone (IZ): 24 mm

## O=C(/C=C/c1cc(/N=N\c2ccc(Cl)cc2)ccc1O)c1cc2ccccc2oc1=O
[11]
  inhibition zone (IZ): >17 mm
[12]
  inhibition zone (IZ): >17 mm
[13]
  inhibition zone (IZ): >17 mm

## O=c1oc2ccccc2c(O)c1C(c1c(Cl)cccc1Cl)c1c(O)c2ccccc2oc1=O
[14]
  inhibition zone (IZ): 10 mm
[15]
  inhibition zone (IZ): 10 mm
[16]
  inhibition zone (IZ): 10 mm
[17]
  inhibition zone (IZ): 10 mm

## CO/N=C(\C(=O)N[C@@H]1C(=O)N2C(C(=O)O)=C(COC(N)=O)CS[C@H]12)c1ccco1 [CEFUROXIME]
[18]
  MIC: 98 µg/mL (≈ 231 µM)

## NCC[C@H](O)C(=O)N[C@@H]1C[C@H](N)[C@@H](O[C@H]2O[C@H](CN)[C@@H](O)[C@H](O)[C@H]2O)[C@H](O)[C@H]1O[C@H]1O[C@H](CO)[C@@H](O)[C@H](N)[C@H]1O [AMIKACIN]
[19]
  inhibition zone (IZ): 17 mm
[20]
  inhibition zone (IZ): 17 mm
[21]
  inhibition zone (IZ): 20 mm
[22]
  inhibition zone (IZ): 18 mm

## COc1cc(COc2cn(CCOc3cc(=O)oc4ccccc34)nn2)ccc1/C=C/C(=O)/C=C/c1ccc(OC)c(OC)c1
[23]
  inhibition zone (IZ): 7 mm
[24]
  inhibition zone (IZ): 8 mm

## O=c1cc(OCc2cn(CN3CCN(c4ccc(F)cc4)CC3)c(=S)s2)c2ccccc2o1
[5]
  MIC: 12.5 µg/mL (≈ 25.8 µM)

## CC[N+](CC)(CC)CCCCCCNCc1cn(Cc2cc(=O)oc3cc4c(cc23)CCC(C)(C)O4)nn1.[Br-]
[8]
  inhibition zone (IZ): 10 mm
[9]
  inhibition zone (IZ): 12 mm

## Cc1c(O)c(C(=O)CCc2ccccc2)c2oc(=O)cc(-c3ccccc3)c2c1O
[25]
  MIC: 2 µg/mL (≈ 4.99 µM)
[26]
  MIC: 1 µg/mL (≈ 2.5 µM)
[27]
  MIC: 2 µg/mL (≈ 4.99 µM)

## CC[N+](CC)(CC)CCCCCCCCNCc1cn(Cc2cc(=O)oc3c(OC)c4c(cc23)CCC(C)(C)O4)nn1.[Br-]
[8]
  inhibition zone (IZ): 2 mm
[9]
  inhibition zone (IZ): 0 mm

## Cc1cc(=O)oc2cc(O)ccc12 [HYMECROMONE]
[28]
  MIC: 50 µg/mL (≈ 284 µM)

## CC[N+](CC)(CC)CCCCCCCCNCc1cn(Cc2cc(=O)oc3c(O)c4c(cc23)CCC(C)(C)O4)nn1.[Br-]
[8]
  inhibition zone (IZ): 2 mm
[9]
  inhibition zone (IZ): 2 mm

## COc1ccc2c(CC(=O)O)cc(=O)oc2c1
[28]
  MIC: 49 µg/mL (≈ 209 µM)

## COc1cc(COc2cn(CCOc3cc(=O)oc4ccccc34)nn2)ccc1/C=C/C(=O)/C=C/c1cc(OC)c(OC)c(OC)c1
[24]
  inhibition zone (IZ): 7 mm

## O=c1oc2ccccc2c(O)c1-c1ccn(-c2ccccc2)n1
[7]
  inhibition zone (IZ): 20 mm
[29]
  inhibition zone (IZ): 16 mm

## CO/N=C(\C(=O)N[C@@H]1C(=O)N2C(C(=O)O)=C(COC(C)=O)CS[C@H]12)c1csc(N)n1 [CEFOTAXIME]
[14]
  inhibition zone (IZ): 11 mm
[15]
  inhibition zone (IZ): 11 mm
[16]
  inhibition zone (IZ): 11 mm
[17]
  inhibition zone (IZ): 11 mm

## Cc1cc(=O)oc2c1=CCC(O)C=2C1C(C#N)=C(N)Oc2c1c(=O)oc1ccccc21 (centres undefined)
[6]
  MIC: 0.4 µg/mL (≈ 0.961 µM)
[30]
  MIC: 1.6 µg/mL (≈ 3.84 µM)

## C[C@H]1COc2c(N3CCN(C)CC3)c(F)cc3c(=O)c(C(=O)O)cn1c23.C[C@H]1COc2c(N3CCN(C)CC3)c(F)cc3c(=O)c(C(=O)O)cn1c23.O [LEVOFLOXACIN]
[18]
  MIC: 3.12 µg/mL

## COc1ccc(C(=O)C(c2c(O)c3ccccc3oc2=O)N2CCCCC2)cc1 (centres undefined)
[31]
  MIC: 6.25 µg/mL (≈ 15.9 µM)

## COc1cccc(/C=C/C(=O)/C=C/c2ccc(COc3cn(CCOc4cc(=O)oc5ccccc45)nn3)cc2OC)c1
[23]
  inhibition zone (IZ): 7 mm
[24]
  inhibition zone (IZ): 8 mm

## CC(C)(C)NC(=O)c1c(-c2ccccc2)nc(SCc2cc(=O)oc3ccc4ccccc4c23)[nH]c1=O
[32]
  MIC: 2.5 µg/mL (≈ 4.89 µM)

## O=C(O)c1cn(C2CC2)c2cc(N3CCNCC3)c(F)cc2c1=O [CIPROFLOXACIN]
[18]
  MIC: 49 µg/mL (≈ 148 µM)
[33]
  MIC: 25 µg/mL (≈ 75.4 µM)
[34]
  MIC: 50 µg/mL (≈ 151 µM)
[35]
  MIC: 2 µg/mL (≈ 6.04 µM)
[36]
  MIC: 2 µg/mL (≈ 6.04 µM)
[37]
  inhibition (INH): 100%
[38]
  inhibition (INH): 100%
[39]
  inhibition zone (IZ): 7.5 mm
[6]
  MIC: 1.6 µg/mL (≈ 4.83 µM)
[30]
  MIC: 1.6 µg/mL (≈ 4.83 µM)
[40]
  MIC: 2 µg/mL (≈ 6.04 µM)
[41]
  MIC: 2 µg/mL (≈ 6.04 µM)
[32]
  MIC: 10 µg/mL (≈ 30.2 µM)

## COc1ccc(CNC(=O)COc2cc(=O)oc3ccccc23)c(OC)c1
[19]
  inhibition zone (IZ): 13 mm
[20]
  inhibition zone (IZ): 12 mm
[21]
  inhibition zone (IZ): 10 mm

## CC1(C)S[C@@H]2[C@H](NC(=O)[C@H](N)c3ccccc3)C(=O)N2[C@H]1C(=O)O [AMPICILLIN]
[42]
  MIC: 4 µg/mL (≈ 11.4 µM)
[43]
  MIC: 4 µg/mL (≈ 11.4 µM)
[44]
  MIC: 4 µg/mL (≈ 11.4 µM)
[5]
  MIC: 6.25 µg/mL (≈ 17.9 µM)
